The text below walks through data of publication PMC9315884, “New Membrane Active Antibacterial and Antiviral Amphiphiles Derived from Heterocyclic Backbone of Pyridinium-4-Aldoxime” (Pharmaceuticals, 2022).

The term MIC denotes the smallest concentration in the dilution series that meets the test's criterion for growth inhibition. Low values mean inhibition by little substance, high ones a need for much substance.

Assay [1] relates to Salmonella enterica food isolate. As to the kind of experiment: Broth microdilution assay (MIC). The conditions noted are these: 18 h, S. enterica food isolate. The assay is classed as cell-based. The protocol: (§1) The antibacterial activity of all compounds was evaluated by determining the minimum inhibitory concentration (MIC), which is defined as the lowest concentration of the compound at which no visible bacterial growth is detected. The compounds were tested against representatives of Gram-positive and Gram-negative strains, including the ESKAPE bacterium Staphylococcus aureus ATCC25923 and the clinical isolate of methicillin-resistant S. aureus (MRSA), which are known for their pathogenicity.
(§2) The collection included five Gram-positive strains, including Staphylococcus aureus (ATCC 25923 and a methicillin-resistant Staphylococcus aureus clinical strain MRSA), Bacillus cereus ATCC 14579, Enterococcus faecalis ATCC 29212, and Listeria monocytogenes ATCC 7644; and three Gram-negative strains: Escherichia coli ATCC 25922, Pseudomonas aeruginosa ATCC 27853 and the food isolate Salmonella enterica. All microbial strains were maintained at ™80 °C for long-term storage and subcultured on Mueller-Hinton (MH) agar (Biolife, Italy) prior to broth microdilution experiments. The MH plates were stored at +4 °C for no longer than one month.
(§3) Antibacterial activity was evaluated using the Broth Microdilution Assay according to the Clinical and Laboratory Standard Institute’s Methods for Dilution Antimicrobial Susceptibility Test for Bacteria That Grow Aerobically; Approved Standard-Tenth Edition.
(§4) The stock solution of QAS (10 mg/mL) was prepared in 4% DMSO. Then, 100 µL of the tested QAS was added to the first well of the microtiter plate. Twofold serial dilutions in Muller-Hinton broth were performed over the entire plate at a concentration range of 5 mg/mL to 5 µg/mL. To each well, 50 µL of mid-exponentially grown inoculum containing 10^5 CFU/mL in Mueller-Hinton broth was added and incubated at 37 °C for 18 hours. The minimum inhibitory concentration (MIC) was determined as the lowest concentration at which no visually detectable bacterial growth occurred in the wells.

The test system of assay [2] is methicillin-resistant Staphylococcus aureus clinical strain MRSA. Kind of assay: Broth microdilution assay (MIC). Particulars: MRSA, 18 h. Format: cell-based. As to the method:
as §1, §2, §3, §4
(In general: In broth dilution the organism is exposed to a series of concentrations in liquid medium.)

In assay [3] the test system is Bacillus cereus ATCC14579. Kind of assay: Broth microdilution assay (MIC). Format: cell-based. Particulars: ATCC14579, 18 h. The protocol:
as §1
(§5) All microbial strains were maintained at ™80 °C for long-term storage and subcultured on Mueller-Hinton (MH) agar (Biolife, Italy) prior to broth microdilution experiments. The MH plates were stored at +4 °C for no longer than one month.
as §3
(§6) The stock solution of QAS (10 mg/mL) was prepared in 4% DMSO. Then, 100 µL of the tested QAS was added to the first well of the microtiter plate. Twofold serial dilutions in Muller-Hinton broth were performed over the entire plate at a concentration range of 5 mg/mL to 5 µg/mL. […] The minimum inhibitory concentration (MIC) was determined as the lowest concentration at which no visually detectable bacterial growth occurred in the wells.

Assay [4] deals with Enterococcus faecalis ATCC29212. As to the kind of experiment: Broth microdilution assay (MIC). The assay is classed as cell-based. Particulars: ATCC29212, 18 h. The protocol:
as §1, §5, §3, §6

The test system of assay [5] is Escherichia coli ATCC25922. As to the kind of experiment: Broth microdilution assay (MIC). Format: cell-based. Particulars: ATCC25922, 18 h. The protocol:
as §1, §5, §3, §6

For assay [6], the system named is Listeria monocytogenes ATCC7644. Kind of assay: Broth microdilution assay (MIC). Format: cell-based. The conditions noted are these: ATCC7644, 18 h. As to the method:
as §1, §5, §3, §6

Assay [7] deals with Pseudomonas aeruginosa ATCC27853. As to the kind of experiment: Broth microdilution assay (MIC). The assay is classed as cell-based. The conditions noted are these: ATCC27853, 18 h. The protocol:
as §1, §5, §3, §6

The test system of assay [8] is Staphylococcus aureus ATCC25923. As to the kind of experiment: Broth microdilution assay (MIC). The assay is classed as cell-based. The conditions noted are these: Staphylococcus aureus, ATCC25923, 18 h. The protocol:
as §1, §5, §3, §6

The test system of assay [9] is Tobacco mosaic virus (TMV). Kind of assay: Antiphytoviral activity assay (local lesions on host plant leaves). The assay is classed as in vivo, Tobacco mosaic virus on Datura stramonium. The conditions noted are these: Datura stramonium leaves, compound 100 µg/mL inoculated simultaneously with TMV. As to the method: Leaves of Nicotiana tabacum L. cv. Samsun plants systemically infected with Tobacco mosaic virus (TMV) were ground in 0.06 mol/L phosphate buffer, pH 7.0 (1:1, w/v) to prepare virus inocula. […] Leaves of the local host Datura stramonium L. were dusted with silicon carbide (Sigma-Aldrich, St. Louis, MO, USA) before virus inoculation, and the inoculum was diluted with inoculation buffer to obtain 5–20 lesions per inoculated leaf. Experiments were performed when the experimental plants reached the 4–6 leaf stage.
The tested QAS (10 mg/mL) were dissolved in 4% DMSO and added to the virus inocula at a final concentration of 100 µg/mL. DMSO was added to the control virus inocula at the same concentration. The control and treated plants were then rubbed with the prepared inocula and the antiviral activity of the tested compounds was evaluated by the percentage inhibition of the number of local lesions on the leaves of the treated and control plants as described in [40]. The obtained data were analyzed in Excel (Microsoft Office) and significant differences were determined by t-test.

A further assay has as its system Escherichia coli DH5α. As to the kind of experiment: MIC determination before AFM. The assay is classed as cell-based.
Assay [10] relates to Escherichia coli DH5α cells. As to the kind of experiment: AFM, bright-field and SYTO9/PI fluorescence microscopy of treated cells. Format: cell-based. The conditions noted are these: E. coli DH5α. As to the method: Optical and atomic force microscopy of the immobilized untreated and treated cells was performed to visualize the effect of Py-C12 on the bacterial membrane. For these experiments we used Escherichia coli DH5α cells because these cells allowed solid immobilization with persevered cell viability.
After making sure that the cells were properly immobilized and proliferating (a few new generations of cells were observed via optical microscopy), we started the treatment. To accelerate the process of time-dependent membrane damage, the cells were treated with the 4xMIC of Py-C12 for three hours after which the sample was rinsed with the fresh growth medium.
To estimate the percentage of cells whose membrane had been permeabilized by the treatment, the same group of cells was stained simultaneously with two fluorescent nucleic dyes, SYTO9 and propidium iodide (PI). […] When applied together, PI tends to displace SYTO9 from nucleic acid and the cells fluorescence in red. […]
AFM measurements of immobilized cells, both untreated and treated, were performed using the Nano-wizard IV system (JPK/Bruker, Berlin, Germany) operating in quantitative imaging (QI) mode with SNL-B probes (Bruker, Billerica, MA, USA). The AFM system was integrated with an IX73 inverted fluorescence optical microscope (Olympus, Tokyo, Japan). […]

Where “and” joins values, the source holds several entries; their conditions need not be identical. Equal entries are not always repeated.

In the case of `CCCCCCCCCCCC[n+]1ccc(C=NO)cc1` [Py-C12], the MIC was 630 µg/mL and 1700 µM in assay [1]; 310 µg/mL in assay [2]; 1250 µg/mL in assay [3]; 630 µg/mL and 1700 µM in assay [4]; 630 µg/mL and 1700 µM in assay [5]; 630 µg/mL and 1700 µM in [6]. In addition, the MIC was 2500 µg/mL and 6730 µM in [7]; 80 µg/mL in [8]. The “Number of local lesions (LLN ± SD)” value in assay [9] was 3.0±1.1. The “Percentage of inhibition of local lesions” value in [9] (vs control plants) stood at 78.1%. Also, the “MIC against E. coli DH5α in words” value in the assay with Escherichia coli DH5α is reported as “equivalent to that of E. coli ATTC 25922”. Also, in assay [10] (4xMIC, 3 h), the “effect on number of bacterial cells (bright-field)” value was “bacteriostatic effect”. Besides, in [10] (4 × MIC, 3 h treatment, SYTO9/PI staining, 344 cells), the “percentage of permeabilized cells” value is on record as 87%.
